Assay results taken from ChEMBL document CHEMBL6134843, “HDAC11 Inhibition as a Potential Therapeutic Strategy for AML: Target Identification, Lead Discovery, Antitumor Potency, and Mechanism Investigation” (J Med Chem, 2025).
Activity calls are given as the source filed them. No cut-off for these calls is given here.

Tests used:
MOLM-13 = assay: Antiproliferative activity against human MOLM-13 cells assessed as cell growth inhibition incubated for 2 days by CCK-8 assay; conditions: MOLM-13, 48 h
U-937 [1] = assay: Induction of cell apoptosis in human U-937 cells incubated for 48 hrs by Annexin V/DAPI staining based flow cytometry analysis; type: functional; conditions: dose 2.5-10 µM
OCI-AML2 [2] = assay: Induction of cell apoptosis in human OCI-AML2 cells incubated for 48 hrs by Annexin V/DAPI staining based flow cytometry analysis; type: functional; conditions: dose 2.5-10 µM
U-937 [3] = assay: Induction of cell differentiation in human U-937 cells assessed as increase in CD11b expression at 5 uM incubated for 48 hrs by flow cytometry analysis; type: functional, cell-based
OCI-AML2 [4] = assay: Induction of cell differentiation in human OCI-AML2 cells assessed as increase in CD14 expression at 5 uM incubated for 48 hrs by flow cytometry analysis; type: functional, cell-based
OCI-AML2 [5] = assay: Induction of cell differentiation in human OCI-AML2 cells assessed as increase in CD11b expression at 5 uM incubated for 48 hrs by flow cytometry analysis; type: functional, cell-based
U-937 [6] = assay: Effect on MOAP1 gene expression in human U-937 cells at 10 uM incubated for 48 hrs by RT-qPCR; type: functional, cell-based
U-937 [7] = assay: Effect on MYC gene expression in human U-937 cells at 10 uM incubated for 48 hrs by RT-qPCR; type: functional, cell-based
U-937 [8] = assay: Effect on CCND2 gene expression in human U-937 cells at 10 uM incubated for 48 hrs by RT-qPCR; type: functional, cell-based
U-937 [9] = assay: Effect on CDK6 gene expression in human U-937 cells at 10 uM incubated for 48 hrs by RT-qPCR; type: functional, cell-based
U-937 [10] = assay: Induction of ferroptosis in human U-937 cells assessed as increase in cellular ROS level incubated for 48 hrs by DCFH-DA staining based flow cytometry analysis; type: functional, cell-based; conditions: dose 2.5-10 µM
U-937 [11] = assay: Induction of ferroptosis in human U-937 cells assessed as increase in lipid peroxidation accumulation at 5 uM incubated for 48 hrs in presence of ferrostatin-1 by C11-BODIPY 581/591 staining based flow cytometry analysis; type: functional, cell-based
U-937 [12] = assay: Induction of ferroptosis in human U-937 cells assessed as increase in ROS generation at 5 uM incubated for 48 hrs in presence of ferrostatin-1 by DCFH-DA staining based flow cytometry analysis; type: functional, cell-based
OCI-AML2 [13] = assay: Induction of ferroptosis in human OCI-AML2 cells assessed as increase in lipid peroxidation accumulation at 5 uM incubated for 48 hrs in presence of ferrostatin-1 by C11-BODIPY 581/591 staining based flow cytometry analysis; type: functional, cell-based
OCI-AML2 [14] = assay: Induction of ferroptosis in human OCI-AML2 cells assessed as increase in malondialdehyde level at 5 uM incubated for 48 hrs; type: functional, cell-based
U-937 [15] = assay: Induction of ferroptosis in human U-937 cells assessed as increase in malondialdehyde level at 5 uM incubated for 48 hrs in presence of ferrostatin-1; type: functional, cell-based
[16] = test system: Acute myeloid leukemic cell; assay: Induction of ferroptosis in human Acute myeloid leukemic cells assessed as upregulation of FTL mRNA level by RT-qPCR analysis; type: functional, cell-based
U-937 [17] = assay: Induction of ferroptosis in human U-937 cells assessed as increase in ferrous ion accumulation at 100 uM incubated for 48 hrs by RhoNox-1 staining based flow cytometry analysis; type: functional, cell-based
[18] = test system: Acute myeloid leukemic cell; assay: Induction of ferroptosis in human Acute myeloid leukemic cells assessed as […] of ACSL4 mRNA level by RT-qPCR analysis; type: functional, cell-based
U-937 [19] = assay: Induction of ferroptosis in human U-937 cells assessed as upregulation of HMOX1 level at 10 uM in presence of Zinc protoporphyrin by flow cytometry analysis; type: functional, cell-based
U-937 [20] = assay: Induction of ferroptosis in human U-937 cells assessed as increase in cellular ROS accumulation at 10 uM in presence of Zinc protoporphyrin by flow cytometry analysis; type: functional, cell-based
U-937 [21] = assay: Antiproliferative activity in human U-937 cells assessed as suppression of cell growth at 10 uM in presence of Zinc protoporphyrin by trypan blue staining based analysis; type: functional
U-937 [22] = assay: Upregulation of Nrf2 protein level in human U-937 cells at 2.5 to 10 uM incubated for 48 hrs by Western blot analysis; type: functional, cell-based; conditions: dose 2.5-10 µM
U-937 [23] = assay: Upregulation of p62 […] level in human U-937 cells at 2.5 to 10 uM incubated for 48 hrs by Western blot analysis; type: functional, cell-based; conditions: dose 2.5-10 µM
[24] = target: Keap1/Nrf2 (Homo sapiens) (UniProt Q16236+Q14145); assay: Activation of Keap1-Nrf2 signaling pathway in human U-937 cells assessed as upregulation of HMOX1 at 5 uM in presence of K67 by Western blot analysis; type: cell-based
Sequence of Keap1/Nrf2 (Homo sapiens) (Q14145 whole entry, looked up): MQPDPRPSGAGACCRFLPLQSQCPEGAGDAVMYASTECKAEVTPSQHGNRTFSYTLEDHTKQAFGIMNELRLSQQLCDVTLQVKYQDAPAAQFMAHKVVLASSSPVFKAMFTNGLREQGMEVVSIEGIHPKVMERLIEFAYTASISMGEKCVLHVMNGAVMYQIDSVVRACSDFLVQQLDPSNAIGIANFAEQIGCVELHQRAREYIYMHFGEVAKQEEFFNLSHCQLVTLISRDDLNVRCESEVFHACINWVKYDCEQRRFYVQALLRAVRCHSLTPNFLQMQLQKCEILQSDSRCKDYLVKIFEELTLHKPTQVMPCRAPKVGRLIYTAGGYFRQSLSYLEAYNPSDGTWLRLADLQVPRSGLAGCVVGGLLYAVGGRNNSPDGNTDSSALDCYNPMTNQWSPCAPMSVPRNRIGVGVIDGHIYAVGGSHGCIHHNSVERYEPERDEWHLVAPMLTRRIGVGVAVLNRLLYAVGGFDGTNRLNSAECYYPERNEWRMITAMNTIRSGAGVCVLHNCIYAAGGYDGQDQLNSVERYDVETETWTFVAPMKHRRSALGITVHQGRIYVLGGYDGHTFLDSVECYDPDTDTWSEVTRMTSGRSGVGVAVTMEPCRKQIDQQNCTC
Sequence of Keap1/Nrf2 (Homo sapiens) (Q16236 whole entry, looked up): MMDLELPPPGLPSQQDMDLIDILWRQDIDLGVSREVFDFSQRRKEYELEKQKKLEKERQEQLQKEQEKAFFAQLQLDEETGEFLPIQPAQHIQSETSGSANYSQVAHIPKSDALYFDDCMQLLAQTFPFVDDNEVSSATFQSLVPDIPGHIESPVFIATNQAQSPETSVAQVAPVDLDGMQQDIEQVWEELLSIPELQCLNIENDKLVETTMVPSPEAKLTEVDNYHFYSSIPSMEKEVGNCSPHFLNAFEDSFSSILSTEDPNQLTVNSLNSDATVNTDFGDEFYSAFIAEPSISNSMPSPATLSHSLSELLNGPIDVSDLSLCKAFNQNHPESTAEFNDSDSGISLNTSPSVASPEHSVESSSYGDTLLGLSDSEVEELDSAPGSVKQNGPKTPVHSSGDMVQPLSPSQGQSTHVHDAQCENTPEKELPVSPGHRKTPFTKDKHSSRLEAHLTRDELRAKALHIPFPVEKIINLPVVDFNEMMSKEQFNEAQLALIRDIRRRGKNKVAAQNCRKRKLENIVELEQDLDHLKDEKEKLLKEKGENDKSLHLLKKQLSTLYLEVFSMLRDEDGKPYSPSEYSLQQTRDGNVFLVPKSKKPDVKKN

[25] = Half life in ICR(CD-1) mouse at 5 mg/kg, iv treated up to 24 hrs by LC-MS/MS analysis; type: ADME, organism-based; conditions: in vivo
[26] = AUC (0 to infinity) in ICR(CD-1) mouse at 5 mg/kg, iv treated up to 24 hrs by LC-MS/MS analysis; type: ADME, organism-based; conditions: in vivo
[27] = AUC (0 to infinity) in ICR(CD-1) mouse at 50 mg/kg, ip treated up to 24 hrs by LC-MS/MS analysis; type: ADME, organism-based; conditions: in vivo
[28] = MRT (0 to infinity) in ICR(CD-1) mouse at 50 mg/kg, ip treated up to 24 hrs by LC-MS/MS analysis; type: ADME, organism-based; conditions: in vivo
[29] = Bioavailability in ICR(CD-1) mouse at 50 mg/kg, ip treated up to 24 hrs by LC-MS/MS analysis; type: ADME, organism-based; conditions: in vivo
[30] = Antitumor activity against mouse MLL-AF9 cells allografted in female C57BL/6 mouse model assessed as GFP positive leukemic cells in peripheral blood at 50 mg/kg, ip administered once daily for 26 days by FITC staining based analysis (reference value: 30.6 %); type: functional; conditions: time 26 day
[31] = Antitumor activity against mouse MLL-AF9 cells allografted in female C57BL/6 mouse model assessed as GFP positive leukemic cells in peripheral blood at 50 mg/kg, ip administered once daily for 32 days by FITC staining based analysis (reference value: 72.5 %); type: functional; conditions: time 32 day
MLL-AF9 = assay: Antitumor activity against mouse MLL-AF9 cells allografted in female C57BL/6 mouse model assessed as reduction in splenomegaly at 50 mg/kg, ip administered once daily for 23 days; type: functional, organism-based; conditions: time 23.0 day
[32] = Toxicity in female C57BL/6 mouse assessed as increase in survival rate at 50 mg/kg, ip administered once daily by Kaplan Mayer survival analysis; type: organism-based; conditions: in vivo
[33] = Toxicity in female C57BL/6 mouse assessed as drug tolerance at 50 mg/kg, ip administered once daily; type: organism-based; conditions: in vivo
[34] = Toxicity in female C57BL/6 mouse assessed as drug tolerance at 50 mg/kg, ip administered once daily in presence of cytarabine; type: organism-based; conditions: in vivo
[35] = Toxicity in female C57BL/6 mouse model assessed as change in body weight at 50 mg/kg, ip administered once daily; type: organism-based; conditions: in vivo
[36] = Toxicity in female C57BL/6 mouse model assessed as change in body weight at 50 mg/kg, ip administered once daily in presence of cytarabine; type: organism-based; conditions: in vivo

## O=C(NO)c1cccc2[nH]c(C#Cc3cccc(C(F)(F)F)c3)cc12
MOLM-13
  IC50: ≤ 10 µM
U-937 [1]
  Activity: Dose-dependent-effect
OCI-AML2 [2]
  Activity: Dose-dependent-effect
U-937 [3]
  Activity: Active
OCI-AML2 [4]
  Activity: Active
OCI-AML2 [5]
  Activity: Active
U-937 [6]
  Activity: Active
U-937 [7]
  Activity: Active
U-937 [8]
  Activity: Active
U-937 [9]
  Activity: Active
U-937 [10]
  Activity: Dose-dependent-effect
U-937 [11]
  Activity: inactive
U-937 [12]
  Activity: inactive
OCI-AML2 [13]
  Activity: inactive
OCI-AML2 [14]
  Activity: Active
U-937 [15]
  Activity: inactive
[16]
  Activity: Active
U-937 [17]
  Activity: Active
[18]
  Activity: Active
U-937 [19]
  Activity: Active; Partially Reversed Zinc Protoporphyrin Inhibition
U-937 [20]
  Activity: Active
U-937 [21]
  Activity: inactive
U-937 [22]
  Activity: Active
U-937 [23]
  Activity: Active
[24]
  Activity: inactive
[25]
  half-life: 0.82 h
[26]
  AUC(0-inf): 625 ng·h/mL
[27]
  AUC(0-inf): 2000 ng·h/mL
[28]
  MRT inf: 6.03 h
[29]
  bioavailability: 32%
[30]
  Activity: 11.2%
[31]
  Activity: 17.2%
MLL-AF9
  Activity: Active
[32]
  Activity: Non-toxic
[33]
  Activity: Non-toxic
[34]
  Activity: Non-toxic
[35]
  Activity: Non-toxic
[36]
  Activity: Non-toxic
